Reference: paper PMC6584507 (Scientific Reports, 2019)
Values after ≈ are worked out from the molar mass of the structure shown.

Key:
[1] = target: T1, hTSLP (Homo sapiens, UniProt Q969D9); assay: 1D and CPMG relaxation-edited NMR ligand binding; conditions: 1 at 100 μM, PBS buffer condition
T1 construct: human TSLP28–159 with thrombin cleavage site at C-terminus; thrombin cleavage site (C); 8xHis (from vector pAB-bee-8xHis) (C, cleaved yes); made in house; host or cells: Trichoplusia ni High-Five cells, baculovirus (secreted)
T1 sequence (Q969D9 28-159): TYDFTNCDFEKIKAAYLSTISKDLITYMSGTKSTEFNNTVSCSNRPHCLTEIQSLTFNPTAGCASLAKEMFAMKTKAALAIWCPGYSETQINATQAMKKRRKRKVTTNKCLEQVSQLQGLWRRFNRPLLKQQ

[2] = target: T2, hTSLPR (Homo sapiens, UniProt Q9HC73); assay: 1D and CPMG relaxation-edited NMR ligand binding; conditions: 1 at 100 μM, 2.5 μM hTSLPR
T2 construct: human TSLPR26–217 with C-terminal octa-histidine tag (hTSLPR-His); 8xHis (C); made in house; host or cells: Trichoplusia ni High-Five cells, baculovirus (secreted)
T2 sequence (Q9HC73 26-217): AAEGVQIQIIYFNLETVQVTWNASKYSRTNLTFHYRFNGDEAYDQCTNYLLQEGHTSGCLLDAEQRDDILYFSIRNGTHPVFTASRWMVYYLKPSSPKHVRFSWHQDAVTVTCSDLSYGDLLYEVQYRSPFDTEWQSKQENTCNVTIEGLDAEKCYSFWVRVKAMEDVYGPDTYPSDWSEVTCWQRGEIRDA
Protocol: (§1) All spectra were measured at 283, 291, and 298 K. Data processing and analysis were conducted using TopSpin 3.1 program (Bruker, Germany). One-dimensional (1D) relaxation-edited experiments were performed using the method previously described by Hadjuk et al.[23]. We used CPMG pulse train with a pre-acquisition delay of 1.8 s, a 2 ms delay for dephasing and rephrasing in spin echo, and a total spin-lock time of 400 ms. The data were collected using a spectral width of 9,615 Hz and 128 scans.

[3] = test system: carbonic anhydrase; assay: 1D and CPMG relaxation-edited NMR ligand binding; conditions: 1 at 100 μM, 2.5 μM carbonic anhydrase
Protocol: as §1

[4] = test system: ovalbumin (OVA)-treated mice; conditions: cited from earlier work
[5] = test system: HDM-challenged mice; assay: HDM-induced mouse model of allergic airway inflammation; type: in vivo; conditions: 1 (200 μg/mL) on day 4, 6 and 8; analysis on day 11
Protocol: Approximately 1 × 10^6 CD4 T cells from DO11.10 mice were transferred to naïve BALB/c mice intravenously. The following day, mice were challenged with a mixture of HDM (50 μg of Dermatophagoides farinae and Dermatophagoides pteronyssinus each; Greer Laboratories, Inc., USA) and 100 μg of OVA (Sigma-Aldrich Co., USA) for three days via the intranasal route. Mice were treated with 1 (200 μg) or PBS intraperitoneally three times every other day starting from […] post-challenge based on previous report. Allergen-challenged mice were sacrificed on day 11 post-challenge. […] The total cell number was counted using a hemocytometer. Leukocytes were transferred to glass slides by Cytospin (Thermo Scientific, USA) at 2,800 rpm for 5 min, and stained with Diff-Quick staining (Sysmex Corporation, Japan). Flow cytometry analysis: […] Cells were stained with anti-CD4 FITC (RM4-5, Biolegend Inc., USA), anti-CD127 PE/Cy7 (A7R34, Biolegend Inc., USA), anti-CD62L APC/Cy7 (MEL14, Biolegend Inc., USA), anti-CD27 PE (LG.7F9, eBioscience Inc., USA), and anti-DO11.10APC (KJ1-26, eBioscience Inc., USA) antibodies for 30 min. Stained cells were examined by flow cytometry using LSR Fortessa ^TM. Data were analyzed using FlowJo software Ver 9.7.6.

[6] = test system: house dust mite (HDM)-challenged mice; conditions: cited from earlier work
[7] = test system: STAT5 phosphorylation in hTSLP-stimulated HMC-1 cells; assay: STAT5 assay (STAT5 phosphorylation, flow cytometry); type: cell-based, human
Protocol: (§2) HMC-1 cells were obtained from the Department of Food Technology and Inflammatory Disease Research Center (Hoseo University, Asan, Chungnam, Korea). Cells were cultured in Iscove’s modified Dulbecco’s medium (IMDM; Hyclone Laboratories Inc, USA) supplemented with 10% FBS and 1% Penicillin-streptomycin (PS; Gibco Industries Inc, USA) and incubated at 37 °C under humidified atmosphere of 95% air and 5% CO2. Recombinant hTSLP was purchased from R&D Systems (Minneapolis, USA).
Intracellular phospho-STAT5 (pSTAT5) staining method was based on the protocol obtained from the laboratory of Susan Kaech, Department of Immunobiology, Yale University School of Medicine (New Haven, Connecticut, USA). Briefly, HMC-1 cells were seeded in 96-well U-bottom plate at a density of 1 × 10^7 cells/mL and stimulated with 100 ng/mL recombinant hTSLP alone or with 1 for 30 min. After stimulation, cells were fixed with BD Cytofix/Cytoperm (BD Biosciences, USA) solution for 10 min. Fixed cells were then permeabilized with ice-cold methanol for 30 min, and intracellular pSTAT5 was stained with Alexa Fluor 647 mouse anti-STAT5 (pY694; BD Biosciences, USA) (1:10 dilution in FACS buffer) for 30 min. Stained cells were further fixed with BD Cytofix/Cytoperm solution for 10 min and re-suspended in FACS buffer for flow cytometry analysis. Cells were analyzed by a BD LSR Fortessa Flow cytometry (BD Biosciences, USA). FACS data were analyzed using FlowJo software Ver 9. 7. 6 (Tree Star Inc., USA).

[8] = Kinetic aqueous solubility; type: physicochemical; conditions: 0.1 M potassium phosphate buffer, kinetic from dmso stock, PBS / phosphate buffer pH 7.4
Protocol: In brief, 10 mM stock solution of tested compounds was prepared in DMSO. 25 μL of the stock solution was added to a 1-mL uniprep vial containing 475 μL of 0.1 M potassium phosphate buffer (pH 7.4), and was shaken at 800 rpm for 90 min at room temperature. Following shaking, the mixture was filtered by slowly pressing the upper tube of the 1 mL Mini-Uniprep^TM filter (PTFE membrane, 0.45 μm). 250 μL of the filtrate solution was then transferred to a HPLC vial containing equal volume of acetonitrile.

[9] = test system: pSTAT5 in TSLP-stimulated HMC-1 cells; assay: Western blot analysis of STAT5 phosphorylation; type: cell-based, human; conditions: HMC-1 cells pretreated, TSLP 20 ng/mL for 2 h
Protocol: as §2
[…] Activated cells were lysed and separated by 10% sodium dodecyl sulfate-polyacrylamide gel electrophoresis (SDS-PAGE). After electrophoresis, proteins were transferred to nitrocellulose membranes. The membranes were blocked, incubated with primary antibodies (1:700 dilution in PBS with 0.05% Tween-20), and developed using peroxidase-conjugated secondary antibodies (1:3000 dilution in PBS with 0.05% Tween-20). Proteins were visualized by enhanced chemiluminescence (Amersham Bioseciences, Piscataway, NJ, USA) according to the manufacturer’s instructions.

[10] = test system: OVA-sensitized and challenged mice; assay: OVA-induced mouse model of allergic airway inflammation; type: in vivo
Protocol: Sensitization and airway challenge: For initial sensitization, BALB/c mice were administered intraperitoneally on day 0 with 20 μg of OVA emulsified in 200 μL of sterile PBS containing 1 mg of aluminum hydroxide adjuvant (Imject® Alum, Thermofisher, Korea). On day 14, the mice were boosted with the same allergen by IP injection. […] The mice were sacrificed at the indicated time points and BAL was performed. […] The control group received vehicle only. BAL: Immediately after sacrifice, lungs were lavaged as described above. Total leukocyte numbers were counted. Differential cell counts were performed by counting at least 200 cells on cytocentrifuged samples stained with Diff-Quick solution.

[11] = target: T3, FLAG-tagged hTSLP bound to His-tagged hTSLPR (Homo sapiens, UniProt Q969D9); assay: Pull-down assay, His-tagged hTSLPR and FLAG-tagged hTSLP, Western blotting; type: binding; conditions: compound at 0, 10, 50 and 100 μM
T3 construct: human TSLP28–159 with thrombin cleavage site at C-terminus; thrombin cleavage site (C); 8xHis (from vector pAB-bee-8xHis) (C, cleaved yes); made in house; host or cells: Trichoplusia ni High-Five cells, baculovirus (secreted)
T3 sequence (Q969D9 28-159): as the sequence (Q969D9 28-159) above

SMILES: O=c1cc(-c2ccccc2)oc2cc(O)c(O)c(O)c12 [Compound 1, baicalein]
- 1D NMR signals of the compound in the presence of the protein [1]: significantly broadened
- 1D NMR signals of the compound in the presence of the protein [2]: no signal broadening
- 1D NMR signals of the compound in the presence of the protein [3]: no signal broadening
- airway inflammation [4]: reduce
- number of allergen-specific T cells [5]: not changed
- number of eosinophils in BALF vs PBS-treated control [5]: substantially reduced
- total number of leukocytes in BALF vs PBS control [5]: comparable
- skin severity scores [6]: lower
- STAT5 phosphorylation % ([7]; 3 µM): 65.7%
- STAT5 phosphorylation % ([7]; 10 μM): 61.6%
- hTSLP inhibitory activity in the in vitro STAT5 assay (in words) ([7]; HMC-1 cells, hTSLP 100 ng/mL, 30 min, compound 1 at 3 or 10 μM): inhibited
- solubility kinetic at 90 min [8]: 62 µM (≈ 16.8 µg/mL)
- inhibition of STAT5 phosphorylation, Western blot (in words) [9]: dose-dependent inhibition
- number of eosinophils recruited to the airways ([10]; 100 mg/kg IP, BALF 48 h): significantly reduced
- eosinophil numbers in BALF over time ([10]; 100 mg/kg IP, as early as 24 h post injection, up to 72 h): decreased
- inhibition of airway inflammation ([10]; single IP administration, 10, 50 or 100 mg/kg, BALF 48 h): dose-dependent manner
- amount of FLAG-tagged hTSLP bound to His-tagged hTSLPR [11]: reduced in a dose-dependent manner
